Experimental data as given in paper PMC11288129, “Diversely evolved xibalbin variants from remipede venom inhibit potassium channels and activate PKA-II and Erk1/2 signaling” (BMC Biology, 2024).
Entries after “also recorded” stand apart in the source; their conditions may differ. Positions of bridges follow the written chain, without caps; N, C: chain ends. No end group written: not given here.

System: Erk1/2 (T202/Y204) in rat DRG neurons
Test: High-content imaging of pERK1/2 in DRG sensory neurons
Type: cell-based
Details: for pErk1/2 activation: 5 and 30 min, 0.005 to 0.8 µg/µL; for pErk1/2 response by neuron size: xibalbins 0.8 µg/µL
Experimental: To gauge sensory neuron activity in response to various activating stimuli, including electrical activity, phosphorylation state detection of protein kinase A type II (PKA-II) and MAP kinase Erk1/2 can act as surrogate measurements. Consequently, we tested for increased phosphorylation states in a concentration-dependent manner following exposure to xibalbins. Dissociated DRG neurons were cultured overnight and then exposed to increasing concentrations of the corresponding xibalbins for 5 min and 30 min, respectively. As a positive control, forskolin (Fsk) was also used to induce cAMP synthesis. The activity of PKA-II was monitored by antibodies directed against the phosphorylation site of the inhibitory regulatory subunits RIIα/β, which is exclusively accessible when the catalytic kinase domain is released during kinase activation. For measuring Erk1/2 activity, phospho-sites on Erk1/2 (T202/Y204) were monitored through immunofluorescence, as these sites are phosphorylated during activation. Cellular images were captured using HCI microscopy (Fig. 8A), and the average intensity of each phospho-antibody was quantified (Fig. 8B).
Fig. 8 A Representative images of rat DRG neurons stimulated with PBS (Ctrl) and xib1b (0.8 µg/µL). Cells were stained for UCHL1, pRII, pERK1/2, and Hoechst followed by fixation and staining with standard immunocytochemistry protocols. Green-encircled neurons indicate automatically selected objects. Scale bar: 100 µm. B Mean intensities of UCHL1, pRII, and pERK1/2. The same UCHL1 intensities were observed among tested groups. Forskolin (Fsk), an activator of adenylyl cyclase, was used as a positive control. Fsk at 6 µM concentration induced an increase in pRII and pERK1/2 intensities at 5 and 30 min. Number of analyzed cells per replica: 750 ± 200. Eight independent replicas. C–F Concentration responses of xibalbin toxins (0.005 to 0.8 µg/µL) and mean intensities of pRII and pERK1/2 at 5 min and 30 min. G–H Size versus pRII and pErk1/2 intensities of cells treated with 0.8 µg/µL of xib1 and xib13. Small-sized cells were responding to xibalbins. Statistical significance was assessed using one-way ANOVA with Dunnett’s post hoc test. Data represent mean ± S.E.M (standard error of the mean), n = 4, see “Methods” for details and Additional File 6: Table S2 for individual data values
Male Sprague Dawley rats (250–400 g, 8–16 weeks old) were obtained from Envigo. Rats were kept in 12 h of light/darkness cycles. All experiments were performed in accordance with the German animal welfare law with permission of the District Government for Nature and Environment, NRW (84–02.05.20.13.045, 4.18.003). Rats were scarified by slow inhalation of CO2 which was followed by decapitation. DRGs were extracted from rats, deheated, pooled, and incubated in Neurobasal A/B27 medium (Invitrogen, #12349–015) supplemented with B-27 (Invitrogen #17504), L-glutamine 1:400, L-glutamate 1:270.3, and penicillin/streptomycin 1:100 containing 0.2 U/mL collagenase P (collagenase P, Roche, #1213857) and incubated for 1 h at 37 °C, 5% CO2. DRGs were dissociated with pasteur pipettes and axon stumps were separated by BSA (Sigma-Aldrich, # A2153-100G) gradient centrifugation (14% BSA, 120 g, 8 min). Cells were resuspended in NBA medium, plated in 96-well imaging plate (Greiner BioOne Sensoplate, Black, #655896) precoated with poly-L-ornithine hydrochloride (0.1 mg/ml Sigma, #P2533)/laminin (5 µg/ml Invitrogen, #23017–015), and incubated overnight at 37 °C, 5% CO2.
DRGs were stimulated after overnight incubation. Compounds were prepared as tenfold concentrated stock solutions, diluted in PBS (PAA, cat# H15-002), in v-bottom plates; 50 µL media from culture wells were mixed with the […] stock solutions, and 50 µL added back to the respective wells. Stimulation was performed with automated multichannel pipette and cells were kept in heated block during the stimulation. […]

[1] = 30 min, 0.8 µg/µL (xib13 148 µM, q = 4.32; xib1 154 µM, q = 4.07)

Sequence | pErk1/2 activation | increase in pErk1/2 signal (5 min, 0.8 µg/µL (148 µM), q = 4.54) | increase in pErk1/2 signal [1] [fold] | pErk1/2 response by neuron size
KRSCIRRFGRCDHRPNDCCYNSSCRCNLWGSNCRCQRMGLFQKWGK (disulfide 4-19, 11-24, 18-35, 26-33) [xib13] | increase PKA-II and Erk1/2 sensitization signaling; also recorded: increased PKA-II and pErk1/2 activity | up to 2.5 fold | ≤ 2.3 | increased phosphorylation signals in both small-sized and large-sized sensory neurons
RLFCIRHHKYCGHRPKRCCSGLFCRCNTFGTNCRCQSKGALGKLI (disulfide 4-19, 11-24, 18-35, 26-33) [xib1] | increase PKA-II and Erk1/2 sensitization signaling; also recorded: increased PKA-II and pErk1/2 activity | – | 2.17 | increased phosphorylation signals in both small-sized and large-sized sensory neurons
